US11834434B2, “Substituted 2-heteroaryloxypyridines and salts thereof and their use as herbicidal agents” (Bayer Aktiengesellschaft, priority 2018, dated 2023)

Legend:
Assay type in all cases: in vivo
[1] = tested on: Amaranthus retroflexus (AMARE); assay: Pre-emergence herbicidal action against Amaranthus retroflexus; settings: 1280 g/ha; scored visually after about 3 weeks vs untreated controls; 100% = plants have died, 0% = like control plants
Description: (§1) Seeds of mono- and dicotyledonous weed plants were placed in plastic pots in sandy loam soil (doubly sown with in each case one species of mono- or dicotyledonous weed plants per pot) and covered with soil. The compounds of the invention, formulated in the form of wettable powders (WP) or as emulsion concentrates (EC), were then applied onto the surface of the covering soil as aqueous suspension or emulsion with addition of 0.5% additive at a water application rate of 600 liters per hectare (converted). After the treatment, the pots were placed in a greenhouse and kept under good growth conditions for the test plants. After about 3 weeks, the effect of the preparations was scored visually in comparison with untreated controls as percentages. For example, 100% activity=the plants have died, 0% activity=like control plants. Tables C1 to C8 below show the effects of selected compounds of the general formula (I) according to Table 1 on various harmful plants and an application rate corresponding to 1280 g/ha, which were obtained by the experimental procedure mentioned above.

Stellaria media (STEME) [2] = assay: Post-emergence herbicidal action against Stellaria media; settings: 1280 g/ha; rated visually after about 3 weeks vs untreated controls; 100% = plants have died, 0% = like control plants
Protocol: (§2) Seeds of mono- and dicotyledonous weed plants were placed in plastic pots in sandy loam soil (doubly sown with in each case one species of mono- or dicotyledonous weed plants per pot), covered with soil and cultivated in a greenhouse under controlled growth conditions. 2 to 3 weeks after sowing, the test plants were treated at the one-leaf stage. The compounds of the invention, formulated in the form of wettable powders (WP) or as emulsion concentrates (EC), were applied onto the green parts of the plants as aqueous suspension or emulsion with addition of 0.5% additive at a water application rate of 600 liters per hectare (converted). After the test plants had been kept in the greenhouse under optimum growth conditions for about 3 weeks, the activity of the preparations was rated visually in comparison to untreated controls. For example, 100% activity=the plants have died, 0% activity=like control plants. Tables B1 to B8 below show the effects of selected compounds of the general formula (I) according to Table 1 on various harmful plants and an application rate corresponding to 1280 g/ha, which were obtained by the experimental procedure mentioned above.

Stellaria media (STEME) [3] = assay: Pre-emergence herbicidal action against Stellaria media; settings: 1280 g/ha; scored visually after about 3 weeks vs untreated controls; 100% = plants have died, 0% = like control plants
Description: as §1

[4] = tested on: Echinochloa crus-galli (ECHCG); assay: Post-emergence herbicidal action against Echinochloa crus-galli; settings: 1280 g/ha; rated visually after about 3 weeks vs untreated controls; 100% = plants have died, 0% = like control plants
Protocol: as §2

[5] = tested on: Amaranthus retroflexus (AMARE); assay: Post-emergence herbicidal action against Amaranthus retroflexus; settings: 1280 g/ha; rated visually after about 3 weeks vs untreated controls; 100% = plants have died, 0% = like control plants
Protocol: as §2

Poa annua (POAAN) [6] = assay: Pre-emergence herbicidal action against Poa annua; settings: 1280 g/ha; scored visually after about 3 weeks vs untreated controls; 100% = plants have died, 0% = like control plants
Description: as §1

Setaria viridis (SETVI) = assay: Pre-emergence herbicidal action against Setaria viridis; settings: 1280 g/ha; scored visually after about 3 weeks vs untreated controls; 100% = plants have died, 0% = like control plants
Description: as §1

[7] = tested on: Abutilon theophrasti (ABUTH); assay: Pre-emergence herbicidal action against Abutilon theophrasti; settings: 1280 g/ha; scored visually after about 3 weeks vs untreated controls; 100% = plants have died, 0% = like control plants
Description: as §1

Lolium rigidum (LOLRI) = assay: Pre-emergence herbicidal action against Lolium rigidum; settings: 1280 g/ha; scored visually after about 3 weeks vs untreated controls; 100% = plants have died, 0% = like control plants
Description: as §1

[8] = tested on: Matricaria inodora (MATIN); assay: Pre-emergence herbicidal action against Matricaria inodora; settings: 1280 g/ha; scored visually after about 3 weeks vs untreated controls; 100% = plants have died, 0% = like control plants
Description: as §1

[9] = tested on: Echinochloa crus-galli (ECHCG); assay: Pre-emergence herbicidal action against Echinochloa crus-galli; settings: 1280 g/ha; scored visually after about 3 weeks vs untreated controls; 100% = plants have died, 0% = like control plants
Description: as §1

Poa annua (POAAN) [10] = assay: Post-emergence herbicidal action against Poa annua; settings: 1280 g/ha; rated visually after about 3 weeks vs untreated controls; 100% = plants have died, 0% = like control plants
Protocol: as §2

[11] = tested on: Abutilon theophrasti (ABUTH); assay: Post-emergence herbicidal action against Abutilon theophrasti; settings: 1280 g/ha; rated visually after about 3 weeks vs untreated controls; 100% = plants have died, 0% = like control plants
Protocol: as §2

Row | Compound | Pre-emergence action against Amaranthus retroflexus (AMARE) [1] | Post-emergence action against Stellaria media (STEME) (Stellaria media (STEME) [2]) | Pre-emergence action against Stellaria media (STEME) (Stellaria media (STEME) [3]) | Post-emergence action against Echinochloa crus-galli (ECHCG) [4] | Post-emergence action against Amaranthus retroflexus (AMARE) [5] | Pre-emergence action against Poa annua (POAAN) (Poa annua (POAAN) [6]) | Pre-emergence action against Setaria viridis (SETVI) (Setaria viridis (SETVI)) | Pre-emergence action against Abutilon theophrasti (ABUTH) [7] | Pre-emergence action against Lolium rigidum (LOLRI) (Lolium rigidum (LOLRI)) | Pre-emergence action against Matricaria inodora (MATIN) [8] | Pre-emergence action against Echinochloa crus-galli (ECHCG) [9] | Post-emergence action against Poa annua (POAAN) (Poa annua (POAAN) [10]) | Post-emergence action against Abutilon theophrasti (ABUTH) [11]
1 | Fc1cnc(Oc2ncccc2Sc2cccc(Cl)c2)nc1 [Example I-158] | 100% | 100% | 100% | 100% | 100% | 90% | 90% |  |  |  |  |  | 
2 | Cc1ccnc(Oc2ncccn2)c1Sc1cccc(Cl)c1 [Example I-212] | 100% | 100% | 100% | 100% |  | 100% | 100% | 100% | 100% | 100% | 100% | 100% | 
3 | Cc1ccc(Cc2ccccc2)c(Oc2ncc(Cl)cn2)n1 [Example I-397] | 90% | 100% | 100% |  |  | 100% | 100% | 100% | 100% | 100% | 100% | 100% | 90%
4 | Cc1ccc(Cc2ccc(F)cc2F)c(Oc2ncc(F)cn2)n1 [Example I-433] | 100% | 100% | 100% |  | 90% | 100% | 100% | 100% | 90% | 100% | 100% | 100% | 90%
5 | Cc1cc(C)c(Cc2ccc(Cl)cc2)c(Oc2ncc(F)cn2)n1 [Example I-482] | 100% | 100% | 100% |  | 100% | 100% | 100% | 100% | 100% | 100% | 100% | 100% | 90%
6 | Cc1cc(C)c(Cc2ccc(C)c(F)c2)c(Oc2ncc(F)cn2)n1 [Example I-483] | 100% | 100% | 100% |  | 90% | 100% | 100% | 100% | 90% | 100% | 90% | 90% | 90%
7 | Cc1cc(C)c(Cc2ccc(Cl)c(F)c2)c(Oc2ncc(F)cn2)n1 [Example I-485] | 100% | 100% | 100% |  | 100% | 100% | 100% | 100% | 90% | 100% | 90% | 90% | 90%
8 | Cc1ccc(Cc2c(C)cc(C)nc2Oc2ncc(F)cn2)cc1 [Example I-486] | 100% | 100% | 100% |  | 90% | 100% | 100% | 100% | 90% |  | 100% | 100% | 90%
9 | COc1c(F)ccc(Cc2c(C)cc(C)nc2Oc2ncc(F)cn2)c1F [Example I-488] | 100% | 100% | 100% |  | 100% | 100% | 100% | 100% | 100% | 100% | 100% | 90% | 100%
10 | Cc1ccc(Oc2ccc(Cl)cc2)c(Oc2ncc(Cl)cn2)n1 [Example I-504] | 100% | 100% | 100% | 90% | 100% | 90% | 100% | 90% | 90% | 90% |  | 100% | 
11 | Cc1ccc(Oc2ccccc2)c(Oc2ncc(F)cn2)n1 [Example I-511] | 100% | 100% | 100% |  | 100% | 100% | 100% | 100% | 90% | 100% | 100% | 100% | 90%
12 | Cc1ccc(Oc2ccc(Cl)cc2)c(Oc2ncc(F)cn2)n1 [Example I-515] | 100% | 100% | 100% | 100% | 100% | 100% | 100% | 100% | 90% | 100% | 100% | 100% | 
